Reference: the supplement of paper PMC12463676, “Small-molecule dissolution of stress granules by redox modulation benefits ALS models” (Nature Chemical Biology, 2025)

Assays:
lipoamide = compound: NC(=O)CCCCC1CCSS1 [lipoamide]; assay: thermal stability z-score vs DMSO; higher = more thermally stabilized by treatment; details: HeLa, lipoamide concentration 100 µM
Description: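 Cellular thermal proteome profiling in HeLa cells. Cells were treated with 100 µM lipoamide for 1 h, with or without 1 mM arsenate for a further 1 h, then heated to ten temperatures (37-66.3 °C), and soluble protein was quantified by TMT mass spectrometry relative to 0.1% DMSO controls. The thermal stability score (sum of log2 fold changes minus the abundance score) was transformed to a z-score; mean of n = 3 experiments.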

potassium arsenate = compound: O=[As]([O-])(O)O.[K+] [potassium arsenate]; assay: as above; details: HeLa; arsenate concentration 1 mM
Description: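 Cellular thermal proteome profiling in HeLa cells treated with 1 mM arsenate for 1 h (DMSO pretreatment), heated to ten temperatures (37-66.3 °C). Soluble protein was quantified by TMT mass spectrometry relative to DMSO controls; the thermal stability score was transformed to a z-score; mean of n = 3 experiments.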

[1] = arsenate co-treatment: 1 mM arsenate 1 h
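Also: each temperature applied for 3 min, abundance score taken as mean log2 fold change at the two lowest temperatures, z-score obtained by mean subtraction and division by SD.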

Chain of UniProt O75052 (O75052 whole entry): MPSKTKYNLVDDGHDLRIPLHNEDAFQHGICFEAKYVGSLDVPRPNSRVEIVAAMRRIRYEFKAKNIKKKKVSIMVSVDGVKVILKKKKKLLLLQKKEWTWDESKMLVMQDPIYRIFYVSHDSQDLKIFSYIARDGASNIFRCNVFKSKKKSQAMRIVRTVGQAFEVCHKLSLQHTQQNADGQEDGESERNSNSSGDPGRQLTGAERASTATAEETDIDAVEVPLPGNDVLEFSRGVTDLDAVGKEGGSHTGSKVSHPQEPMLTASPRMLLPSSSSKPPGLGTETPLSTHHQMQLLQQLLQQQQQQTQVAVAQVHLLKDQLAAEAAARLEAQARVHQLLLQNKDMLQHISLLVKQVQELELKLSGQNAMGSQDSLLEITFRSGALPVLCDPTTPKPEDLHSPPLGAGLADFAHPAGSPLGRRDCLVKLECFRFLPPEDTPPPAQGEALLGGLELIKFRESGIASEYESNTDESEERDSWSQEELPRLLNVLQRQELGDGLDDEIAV
Chain of UniProt P23528 (P23528 whole entry): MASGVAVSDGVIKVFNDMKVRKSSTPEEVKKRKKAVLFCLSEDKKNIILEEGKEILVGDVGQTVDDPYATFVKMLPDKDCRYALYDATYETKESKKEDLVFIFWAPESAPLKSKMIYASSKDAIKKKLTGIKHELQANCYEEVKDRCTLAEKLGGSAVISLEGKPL
Chain of UniProt P15289 (P15289 whole entry): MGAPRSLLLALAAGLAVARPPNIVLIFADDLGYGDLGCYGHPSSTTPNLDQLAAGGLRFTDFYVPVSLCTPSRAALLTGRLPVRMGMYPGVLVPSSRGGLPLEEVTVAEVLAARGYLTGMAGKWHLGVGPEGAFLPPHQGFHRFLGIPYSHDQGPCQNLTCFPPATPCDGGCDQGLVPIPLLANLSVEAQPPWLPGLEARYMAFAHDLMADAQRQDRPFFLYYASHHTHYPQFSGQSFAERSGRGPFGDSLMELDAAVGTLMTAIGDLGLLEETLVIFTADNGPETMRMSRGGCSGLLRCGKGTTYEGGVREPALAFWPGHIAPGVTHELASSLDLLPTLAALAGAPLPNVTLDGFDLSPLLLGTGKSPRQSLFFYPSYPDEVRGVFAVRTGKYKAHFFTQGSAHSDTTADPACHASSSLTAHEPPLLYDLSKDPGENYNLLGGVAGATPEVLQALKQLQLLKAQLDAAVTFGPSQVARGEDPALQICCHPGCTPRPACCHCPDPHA
Chain of UniProt Q9P2D3 (Q9P2D3 whole entry): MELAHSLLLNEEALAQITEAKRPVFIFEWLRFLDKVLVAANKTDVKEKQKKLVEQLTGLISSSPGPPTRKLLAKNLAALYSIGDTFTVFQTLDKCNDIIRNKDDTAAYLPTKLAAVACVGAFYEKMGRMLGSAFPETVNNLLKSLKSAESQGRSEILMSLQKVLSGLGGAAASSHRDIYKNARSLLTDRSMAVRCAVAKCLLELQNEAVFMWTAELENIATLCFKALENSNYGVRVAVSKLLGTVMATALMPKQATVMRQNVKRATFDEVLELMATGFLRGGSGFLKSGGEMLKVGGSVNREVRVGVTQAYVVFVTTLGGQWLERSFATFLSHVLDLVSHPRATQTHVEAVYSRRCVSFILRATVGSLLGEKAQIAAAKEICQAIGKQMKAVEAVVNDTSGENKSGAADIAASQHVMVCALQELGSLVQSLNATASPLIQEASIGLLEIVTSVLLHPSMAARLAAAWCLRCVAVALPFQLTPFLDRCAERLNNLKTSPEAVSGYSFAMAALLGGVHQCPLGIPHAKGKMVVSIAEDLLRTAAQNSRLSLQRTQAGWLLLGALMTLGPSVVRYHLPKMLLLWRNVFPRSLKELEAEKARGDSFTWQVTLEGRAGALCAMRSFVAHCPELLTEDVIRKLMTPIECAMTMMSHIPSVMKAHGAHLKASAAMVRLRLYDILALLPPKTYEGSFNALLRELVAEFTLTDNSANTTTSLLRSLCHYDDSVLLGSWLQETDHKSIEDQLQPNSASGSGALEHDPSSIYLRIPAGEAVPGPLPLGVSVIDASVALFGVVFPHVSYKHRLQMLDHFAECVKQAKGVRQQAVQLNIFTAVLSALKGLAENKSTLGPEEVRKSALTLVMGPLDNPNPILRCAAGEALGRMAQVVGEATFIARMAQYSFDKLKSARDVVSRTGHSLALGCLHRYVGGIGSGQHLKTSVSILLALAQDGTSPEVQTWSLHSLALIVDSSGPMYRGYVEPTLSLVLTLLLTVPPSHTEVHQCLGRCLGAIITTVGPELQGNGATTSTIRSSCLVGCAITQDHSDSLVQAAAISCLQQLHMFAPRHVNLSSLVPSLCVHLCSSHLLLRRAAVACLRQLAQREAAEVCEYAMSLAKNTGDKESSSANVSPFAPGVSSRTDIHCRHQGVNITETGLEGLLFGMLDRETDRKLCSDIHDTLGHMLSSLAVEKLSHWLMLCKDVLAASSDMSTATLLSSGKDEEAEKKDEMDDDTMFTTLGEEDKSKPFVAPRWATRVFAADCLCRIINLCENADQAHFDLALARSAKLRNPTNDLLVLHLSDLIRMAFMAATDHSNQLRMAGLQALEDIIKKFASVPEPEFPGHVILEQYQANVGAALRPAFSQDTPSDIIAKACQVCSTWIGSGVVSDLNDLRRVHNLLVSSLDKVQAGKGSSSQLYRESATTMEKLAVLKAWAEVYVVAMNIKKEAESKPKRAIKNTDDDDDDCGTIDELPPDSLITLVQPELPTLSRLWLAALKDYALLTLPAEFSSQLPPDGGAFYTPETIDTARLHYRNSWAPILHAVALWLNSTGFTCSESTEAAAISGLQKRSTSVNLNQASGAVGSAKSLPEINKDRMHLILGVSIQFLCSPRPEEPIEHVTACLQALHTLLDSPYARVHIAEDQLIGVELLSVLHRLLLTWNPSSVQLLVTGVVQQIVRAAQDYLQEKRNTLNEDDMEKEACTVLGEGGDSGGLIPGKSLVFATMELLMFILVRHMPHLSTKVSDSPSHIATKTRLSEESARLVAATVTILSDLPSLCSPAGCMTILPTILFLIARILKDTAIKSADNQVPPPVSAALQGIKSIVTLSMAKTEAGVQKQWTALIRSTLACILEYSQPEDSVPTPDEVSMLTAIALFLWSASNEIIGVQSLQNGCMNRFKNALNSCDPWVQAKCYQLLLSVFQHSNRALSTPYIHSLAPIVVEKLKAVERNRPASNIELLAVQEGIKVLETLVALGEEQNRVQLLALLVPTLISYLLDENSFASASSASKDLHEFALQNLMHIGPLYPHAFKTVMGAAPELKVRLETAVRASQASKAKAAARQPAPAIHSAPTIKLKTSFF
Chain of UniProt Q96MV1 (Q96MV1 whole entry): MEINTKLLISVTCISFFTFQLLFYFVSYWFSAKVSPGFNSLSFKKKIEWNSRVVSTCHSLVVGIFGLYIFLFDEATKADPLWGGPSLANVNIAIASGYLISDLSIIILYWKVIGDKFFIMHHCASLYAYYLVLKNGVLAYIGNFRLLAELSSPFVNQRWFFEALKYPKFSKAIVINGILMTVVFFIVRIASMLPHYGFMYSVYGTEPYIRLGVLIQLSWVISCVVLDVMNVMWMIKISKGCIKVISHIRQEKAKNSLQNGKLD
Chain of UniProt P55327 (P55327 whole entry): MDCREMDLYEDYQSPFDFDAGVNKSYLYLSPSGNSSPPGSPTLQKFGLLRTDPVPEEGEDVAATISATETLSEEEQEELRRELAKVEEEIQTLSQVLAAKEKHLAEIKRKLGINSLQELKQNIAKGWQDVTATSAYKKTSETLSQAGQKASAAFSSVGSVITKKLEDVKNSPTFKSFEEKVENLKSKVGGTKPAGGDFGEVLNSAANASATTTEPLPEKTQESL
Chain of UniProt P56181 (P56181 whole entry): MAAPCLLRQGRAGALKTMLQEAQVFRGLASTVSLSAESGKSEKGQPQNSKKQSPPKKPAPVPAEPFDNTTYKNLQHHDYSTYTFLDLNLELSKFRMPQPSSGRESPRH
Chain of UniProt P13693 (P13693 whole entry): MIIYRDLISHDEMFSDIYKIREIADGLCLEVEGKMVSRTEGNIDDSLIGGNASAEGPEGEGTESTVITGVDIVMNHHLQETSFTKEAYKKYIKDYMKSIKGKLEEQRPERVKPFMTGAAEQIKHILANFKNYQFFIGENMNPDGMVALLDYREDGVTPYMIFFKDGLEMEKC
Chain of UniProt Q9Y294 (Q9Y294 whole entry): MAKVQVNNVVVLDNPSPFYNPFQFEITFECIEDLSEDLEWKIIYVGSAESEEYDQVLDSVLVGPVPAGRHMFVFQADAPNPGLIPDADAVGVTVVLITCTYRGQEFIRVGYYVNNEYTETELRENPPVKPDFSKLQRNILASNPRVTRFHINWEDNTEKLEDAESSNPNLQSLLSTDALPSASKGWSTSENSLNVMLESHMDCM
Chain of UniProt Q8WWH5 (Q8WWH5 whole entry): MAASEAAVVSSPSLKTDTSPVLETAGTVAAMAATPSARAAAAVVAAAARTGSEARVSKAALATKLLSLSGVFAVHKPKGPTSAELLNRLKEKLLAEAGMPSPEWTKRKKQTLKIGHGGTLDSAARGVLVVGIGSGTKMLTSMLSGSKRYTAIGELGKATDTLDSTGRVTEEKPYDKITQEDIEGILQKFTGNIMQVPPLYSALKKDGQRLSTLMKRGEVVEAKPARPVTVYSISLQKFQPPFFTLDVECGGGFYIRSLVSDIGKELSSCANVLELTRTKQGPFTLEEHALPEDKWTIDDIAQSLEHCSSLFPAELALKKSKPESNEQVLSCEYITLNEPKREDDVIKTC
Chain of UniProt Q96JY6 (Q96JY6 whole entry): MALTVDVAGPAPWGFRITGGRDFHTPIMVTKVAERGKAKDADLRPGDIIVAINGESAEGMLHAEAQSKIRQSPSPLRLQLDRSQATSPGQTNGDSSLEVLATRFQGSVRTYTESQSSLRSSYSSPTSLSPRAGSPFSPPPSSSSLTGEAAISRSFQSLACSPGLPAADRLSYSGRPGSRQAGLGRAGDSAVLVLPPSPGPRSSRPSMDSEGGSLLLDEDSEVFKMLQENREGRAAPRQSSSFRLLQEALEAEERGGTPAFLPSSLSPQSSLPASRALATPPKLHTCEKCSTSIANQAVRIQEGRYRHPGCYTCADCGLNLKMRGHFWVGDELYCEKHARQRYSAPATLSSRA

Row | Target | thermal stability z-score (lipoamide; [1]) | thermal stability z-score (lipoamide; arsenate co-treatment: none) | thermal stability z-score (potassium arsenate)
1 | YTHDF3 (UniProt Q7Z739) | -0.486 | 0.111 | 0.174
2 | TRUB1 (UniProt Q8WWH5) | -0.102 | 0.175 | 0.231
3 | HEATR5B (UniProt Q9P2D3) | -1.25 | -0.638 | -0.105
4 | RAD54L2 (UniProt Q9Y4B4) | -0.0715 | 0.0462 | -0.235
5 | NOS1AP (UniProt O75052) | 0.676 | -0.0802 | -1.45
6 | ARSA (UniProt P15289) | 0.254 | 0.195 | -0.0376
7 | PIGA (UniProt P37287) | 0.843 | 0.283 | 0.147
8 | GTF2E2 (UniProt P29084) | -0.693 | -0.556 | 0.0275
9 | ATP6V0A1 (UniProt Q93050) | 0.0809 | 0.332 | 0.705
10 | USP8 (UniProt P40818) | -0.401 | -0.0464 | 0.561
11 | METTL13 (UniProt Q8N6R0) | -0.507 | -0.621 | 0.0691
12 | BCOR (UniProt Q6W2J9) | 0.0203 | 0.0502 | -0.011
13 | VPS36 (UniProt Q86VN1) | -0.308 | -0.0675 | 0.0802
14 | HNRNPA2B1 (UniProt P22626) | 0.93 | 0.512 | 0.0566
15 | GNPTAB (UniProt Q3T906) | -2.42 | -1.66 | -0.467
16 | C1S (UniProt P09871) | 0.0855 | -0.147 | 0.0687
17 | INPP5B (UniProt P32019) | -0.146 | -0.514 | -0.211
18 | ASF1A (UniProt Q9Y294) | -0.132 | -0.202 | -0.103

Row | Target | thermal stability z-score (lipoamide; [1]) | thermal stability z-score (lipoamide; arsenate co-treatment: none) | thermal stability z-score (potassium arsenate)
19 | TBCEL (UniProt Q5QJ74) | -0.202 | -0.0108 | 0.0212
20 | NDUFV3 (UniProt P56181) | 0.238 | 0.504 | -0.157
21 | LAMA1 (UniProt P25391) | -2 | -1.82 | 1.13
22 | COPZ1 (UniProt P61923) | -0.374 | 0.0476 | 0.734
23 | TMEM56 (UniProt Q96MV1) | 0.138 | 1.15 | 0.953
24 | CFL1 (UniProt P23528) | 0.501 | 0.449 | -0.362
25 | RBM12 (UniProt Q9NTZ6) | -0.205 | -0.19 | -0.506
26 | TPD52 (UniProt P55327) | 2.04 | 2.1 | 1.35
27 | HEG1 (UniProt Q9ULI3) | -0.842 | 1.15 | 0.868
28 | BDH2 (UniProt Q9BUT1) | -0.0305 | -0.246 | -0.414
29 | PDLIM2 (UniProt Q96JY6) | -0.719 | -0.463 | -0.0521
30 | RAB3D (UniProt O95716) | 0.635 | 1.07 | 0.692
31 | MYO18A | -0.283 | 0.122 | 0.197
32 | AP1G2 (UniProt O75843) | 0.17 | 0.114 | 0.167
33 | ATG7 (UniProt O95352) | -0.324 | 0.291 | 0.16
34 | PEF1 (UniProt Q9UBV8) | 0.534 | 0.979 | 0.494
35 | GTF3C1 (UniProt Q12789) | 0.0666 | -0.0357 | -0.534
36 | TPT1 (UniProt P13693) | 0.494 | 0.196 | -0.445
